Test: Study HDP-CDV-201: safety and tolerability (adverse events, laboratory abnormalities, discontinuations)
Assay type: in vivo, human (adult allogeneic HSCT recipients)
Experimental: Clinical Studies of HDP-CDV were performed and described in detail in the following Examples. For example, HDP-CDV-201 is a placebo-controlled, dose-escalating trial in HSCT CMV (R+) recipients, evaluating the ability of HDP-CDV to prevent or control CMV infection was carried out. Five cohorts were established in which participants or subjects received either placebo or the HDP-CDV orally, in doses ranging from 40 mg weekly (QW) to 200 mg twice weekly (BIW). Subjects who were post-HSCT were enrolled at the time of engraftment and randomized to HDP-CDV or placebo (3 to 1 ratio) and received blinded therapy until approximately 100 day post-transplantation. HDP-CDV doses were 40 mg QW, 100 mg QW, 200 mg QW, 200 mg BIW and 100 mg BIW. Escalation to the next dose was decided by the data monitoring committee after review of the safety data from the previous Cohort. Subjects who developed CMV disease or CMV infection requiring pre-emptive therapy with local standard of care were discontinued from blinded therapy and followed for 4 weeks. Subjects who completed treatment with blinded therapy were followed for 8 weeks post-therapy.
Data from Study HDP-CDV-201 also provided characterization of the safety and tolerability profile of HDP-CDV when administered for the prevention or control of CMV infection in high risk (R^+) post-HSCT adult subjects.
The Safety population (SAFETY) included all randomized subjects who took at least one dose of study treatment. This population was used to summarize safety outcomes based on the treatment actually received, in cases where a subject was treated contrary to the randomization schedule.
The safety and tolerability profile of HDP-CDV, including subject demographics and Baseline characteristics; the AE profile; and laboratory abnormalities of interest were analyzed in the cohorts followed in this investigation.
Subjects completing the treatment period received a full course of study medication; those completing the entire study attended visits through 8 weeks of follow up. Subjects who discontinued treatment may have done so for protocol specified reasons (e.g. development of clinically significant CMV infection requiring preemptive treatment with excluded anti-CMV medications) or for other reasons (e.g., withdrawal, adverse events, loss to follow-up). The disposition of subjects in Study HDP-CDV-201 during the double-blind, placebo-controlled treatment period (through Week 11) is listed by dosing Cohort in TABLE 23.
Adverse events were examined by severity to ensure that all safety signals were identified in this study population. Because of the frequency of events in HSCT recipients, particular attention was given to evaluation of Grade 3 […], 4 (severe), and 5 (fatal) adverse events.
Only those preferred terms for which at least one Grade 3 or higher event was experienced in any treatment group are listed. Cytomegalovirus-related AEs are excluded from this analysis.
HDP-CDV is a lipid conjugate of CDV. Because CDV is known to have adverse effects on renal function and bone marrow, decreased GFR and persistent neutropenia were identified as AEs of special interest. Key renal and hematological (TABLE 30) laboratory parameters were measured and listed below by Study HDP-CDV-201 treatment groups. TABLE 30 includes abnormal levels of serum creatinine, neutrophils, platelets, WBCs, and hemoglobin and includes data at Screening and during the treatment period.
A common metric for unit based dosing of medications is by weight (mg/kg). When the distribution of weights was examined for all subjects participating in the study, the median was 78 kg and the lower 25th percentile weight was approximately 65 kg, which translates to a cut-off of ˜3 mg/kg for a 200 mg total weekly dose. Based upon this approach, a cut-off of 3 mg/kg was used to assess the frequency of diarrhea and associated GI AEs reported for the subjects in Cohorts 3 or 4a (TABLE 40).

## CCCCCCCCCCCCCCCCOCCCOP(=O)(O)COC(CO)Cn1ccc(N)nc1=O (stereo not drawn) [HDP-CDV]
Cohort 3
  Grade of hepatobiliary AE acute liver injury, subject 3025: 1
  Grade of hepatobiliary AE gallbladder sludge, subject 3044: 2
  Grade of hepatobiliary AE hyperbilirubenemia, subject 3030: 2
  Grade of hepatobiliary AE hyperbilirubinemia, subject 3009: 1
  Grade of hepatobiliary AE hyperbilirubinemia, subject 3044: 4
  Grade of hepatobiliary AE jaundiced, subject 3030: 2
  Outcome of hepatobiliary AE acute liver injury, subject 3007: not recovered/not
  Outcome of hepatobiliary AE acute liver injury, subject 3025: recovered/resolved
  Outcome of hepatobiliary AE gallbladder sludge, subject 3044: not recovered/not
  Outcome of hepatobiliary AE hyperbilirubenemia, subject 3030: not recovered/not
  Outcome of hepatobiliary AE hyperbilirubinemia, subject 3009: recovered/resolved
  Outcome of hepatobiliary AE hyperbilirubinemia, subject 3044: not recovered/not
  Outcome of hepatobiliary AE jaundiced, subject 3030: not recovered/not
  Relationship of hepatobiliary AE acute liver injury, subject 3007: not related
  Relationship of hepatobiliary AE acute liver injury, subject 3025: not related
  Relationship of hepatobiliary AE gallbladder sludge, subject 3044: not related
  Relationship of hepatobiliary AE hyperbilirubenemia, subject 3030: not related
  Relationship of hepatobiliary AE hyperbilirubinemia, subject 3009: not related
  Relationship of hepatobiliary AE hyperbilirubinemia, subject 3044: not related
  Relationship of hepatobiliary AE jaundiced, subject 3030: not related
  subjects discontinued due to neutropenia: 2 subject(s)
Cohort 3, 200 mg QW
  ALT (Screening) >3 × ULN-5 × ULN, subjects: 0
  ALT (Screening) >5 × ULN-10 × ULN, subjects: 0
  ALT (Screening) >10 × ULN-20 × ULN, subjects: 0
  ALT (Screening) >20 × ULN, subjects: 0
  ALT (any time during therapy) >3 × ULN-5 × ULN, subjects: 4 (10.5%)
  ALT (any time during therapy) >5 × ULN-10 × ULN, subjects: 5 (13.2%)
  ALT (any time during therapy) >10 × ULN-20 × ULN, subjects: 0
  ALT (any time during therapy) >20 × ULN, subjects: 1 (2.6%)
  AST (Screening) >3 × ULN-5 × ULN, subjects: 0
  AST (Screening) >5 × ULN-10 × ULN, subjects: 0
  AST (Screening) >10 × ULN-20 × ULN, subjects: 0
  AST (Screening) >20 × ULN, subjects: 0
  AST (any time during therapy) >3 × ULN-5 × ULN, subjects: 5 (13.2%)
  AST (any time during therapy) >5 × ULN-10 × ULN, subjects: 1 (2.6%)
  AST (any time during therapy) >10 × ULN-20 × ULN, subjects: 0
  AST (any time during therapy) >20 × ULN, subjects: 0
  Alkaline Phosphatase (Screening) >2.5-5.0 × ULN, subjects: 0
  Alkaline Phosphatase (Screening) >5.0-20.0 × ULN, subjects: 0
  Alkaline Phosphatase (Screening) >20.0 × ULN, subjects: 0
  Alkaline Phosphatase (Screening) >ULN-[…] ULN, subjects: 5 (13.5%)
  Alkaline Phosphatase (any time during therapy) >2.5-5.0 × ULN, subjects: 0
  Alkaline Phosphatase (any time during therapy) >5.0-20.0 × ULN, subjects: 0
  Alkaline Phosphatase (any time during therapy) >20.0 × ULN, subjects: 0
  Alkaline Phosphatase (any time during therapy) >ULN-[…] ULN, subjects: 14 (36.8%)
  GI AE Leading to Study Drug Discontinuation: Abdominal pain, subjects: 0
  GI AE Leading to Study Drug Discontinuation: Diarrhoea, subjects: 1 (2.6%)
  GI AE Leading to Study Drug Discontinuation: Dyspepsia, subjects: 2 (5.1%)
  GI AE Leading to Study Drug Discontinuation: Nausea, subjects: 0
  GI AE Leading to Study Drug Discontinuation: Vomiting, subjects: 0
  GI AEs Leading to Study Drug Discontinuation: Total subjects discontinued: 3 (7.7%)
  Gastrointestinal AE Abdominal discomfort, subjects: 1 (2.6%)
  Gastrointestinal AE Abdominal distention, subjects: 0
  Gastrointestinal AE Abdominal pain upper, subjects: 1 (2.6%)
  Gastrointestinal AE Abdominal pain, subjects: 5 (12.8%)
  Gastrointestinal AE Constipation, subjects: 2 (5.1%)
  Gastrointestinal AE Diarrhoea, subjects: 13 (33.3%)
  Gastrointestinal AE Diverticulum intestinal haemorragic, subjects: 1 (2.6%)
  Gastrointestinal AE Dyspepsia, subjects: 4 (10.3%)
  Gastrointestinal AE Dysphagia, subjects: 0
  Gastrointestinal AE Epigastric discomfort, subjects: 0
  Gastrointestinal AE Flatulence, subjects: 1 (2.6%)
  Gastrointestinal AE GERD, subjects: 2 (5.1%)
  Gastrointestinal AE Gastritis, subjects: 0
  Gastrointestinal AE Haematochezia, subjects: 0
  Gastrointestinal AE Haemorroids, subjects: 0
  Gastrointestinal AE Large intestinal ulcer, subjects: 0
  Gastrointestinal AE Nausea, subjects: 11 (28.2%)
  Gastrointestinal AE Odynophagia, subjects: 0
  Gastrointestinal AE Oesophagitis, subjects: 0
  Gastrointestinal AE Retching, subjects: 0
  Gastrointestinal AE Vomiting, subjects: 6 (15.4%)
  Hepatobiliary clinical AE Cholelithiasis, subjects: 0
  Hepatobiliary clinical AE Hepatomegaly, subjects: 0
  Hepatobiliary clinical AE Hyperbilirubinaemia, subjects: 3 (7.7%)
  Hepatobiliary clinical AE Jaundice, subjects: 1 (2.6%)
  Hepatobiliary clinical AE Liver injury, subjects: 2 (5.1%)
  Intensity of Gastrointestinal AEs, Grade 1, subjects: 12 (30.8%)
  Intensity of Gastrointestinal AEs, Grade 2, subjects: 10 (25.6%)
  Intensity of Gastrointestinal AEs, Grade 3, subjects: 2 (5.1%)
  Intensity of Gastrointestinal AEs, Grade 4, subjects: 2 (5.1%)
  Intensity of Gastrointestinal AEs, Grade 5, subjects: 0
  Proportion of Subjects with Stage 3 or 4 Gut GVHD: 0%
  Serum ALT level, Median fold increase from Baseline at Follow-up Week 1: 2.52 fold
  Serum ALT level, Median fold increase from Baseline at Follow-up Week 4: 1.06 fold
  Serum ALT level, Peak Median fold increase from Baseline: 3.13 fold
  Subjects completed study: 14 (35.9%) n (%)
  TEAE Abdominal pain Grade 2, subjects: 1 (2.6%)
  TEAE Abdominal pain Grade 3, subjects: 1 (2.6%)
  TEAE Abdominal pain Grade 4, subjects: 0
  TEAE Abdominal pain Grade 5, subjects: 0
  TEAE Abdominal pain Overall Frequency, subjects: 5 (12.8%)
  TEAE Diarrhea Grade 2, subjects: 5 (12.8%)
  TEAE Diarrhea Grade 3, subjects: 2 (5.1%)
  TEAE Diarrhea Grade 4, subjects: 0
  TEAE Diarrhea Grade 5, subjects: 0
  TEAE Diarrhea Overall Frequency, subjects: 13 (33.3%)
  TEAE Hypokalaemia Grade 2, subjects: 2 (5.1%)
  TEAE Hypokalaemia Grade 3, subjects: 0
  TEAE Hypokalaemia Grade 4, subjects: 0
  TEAE Hypokalaemia Grade 5, subjects: 0
  TEAE Hypokalaemia, subjects: 5 (12.8%)
  TEAE Nausea Grade 2, subjects: 4 (10.3%)
  TEAE Nausea Grade 3, subjects: 1 (2.6%)
  TEAE Nausea Grade 4, subjects: 0
  TEAE Nausea Grade 5, subjects: 0
  TEAE Nausea Overall Frequency, subjects: 11 (28.2%)
  TEAE Vomiting Grade 2, subjects: 1 (2.6%)
  TEAE Vomiting Grade 3, subjects: 1 (2.6%)
  TEAE Vomiting Grade 4, subjects: 0
  TEAE Vomiting Grade 5, subjects: 0

From patent publication US20140303092A1 (CHIMERIX, INC., priority 2011, published 2014)
